The values that follow come from the NIST ThermoML archive (doi:10.1016/j.jct.2013.12.008).

± gives the expanded uncertainty stated by the source.

The conditions of the series: 101.33 kPa, Liquid; for viscosity: Capillary tube (Ostwald / Ubbelohde) method; for mass density: Pycnometric method.

As to `COc1ccccc1` [anisole], the viscosity is 0.989 ± 0.04 mPa·s (298.15 K), 0.906 ± 0.037 mPa·s (308.15 K) and 0.84 ± 0.034 mPa·s (318.15 K). Besides, the mass density is recorded as 988.9 ± 0.8 kg/m3 (298.15 K), 979.5 ± 0.8 kg/m3 (308.15 K) and 970.5 ± 0.8 kg/m3 (318.15 K).
In the case of `CCOc1ccccc1` [ethoxybenzene], the viscosity is given as 1.223 ± 0.05 mPa·s (298.15 K), 0.982 ± 0.04 mPa·s (308.15 K) and 0.823 ± 0.034 mPa·s (318.15 K). The mass density is, setting by setting: (298.15 K) 960.2 ± 0.6 kg/m3; (308.15 K) 953.4 ± 0.8 kg/m3; (318.15 K) 942.5 ± 0.9 kg/m3.
